According to ChEMBL document CHEMBL1201862, “PubChem BioAssay data set” (2004):
One block for each compound: values may come before it. Calls of active or inactive are those of the source.

Assays:
[1] = test system: P388/ADR; experiment: cells; assay type: functional; conditions: Mus musculus
[2] = test system: SN12K1; experiment: cells; assay type: functional; conditions: Homo sapiens
[3] = test system: P388; experiment: cells; assay type: functional; conditions: Mus musculus
[4] = biological target: T1, Carboxy-terminal domain RNA polymerase II polypeptide A small phosphatase 1 (Homo sapiens, UniProt Q9GZU7); experiment: CTDSP1 inhibitors, concentration-response, biochemical, absorbance readout, ultra-high-throughput screen actives (AID 540297); assay type: functional
T1 sequence (Q9GZU7 whole entry): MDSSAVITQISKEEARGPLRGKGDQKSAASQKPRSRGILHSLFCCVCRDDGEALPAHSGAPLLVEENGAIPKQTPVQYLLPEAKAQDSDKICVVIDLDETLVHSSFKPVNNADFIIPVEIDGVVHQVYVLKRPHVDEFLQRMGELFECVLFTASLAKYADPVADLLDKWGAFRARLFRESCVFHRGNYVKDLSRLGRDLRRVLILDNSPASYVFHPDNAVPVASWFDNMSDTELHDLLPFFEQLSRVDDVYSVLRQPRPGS

[5] = biological target: T2, Short transient receptor potential channel 4 (Mus musculus, UniProt Q9QUQ5); experiment: calcium entry via TRPC4 opening agents – cell-based, HEK293 TRPC4/mu-opioid, Fluo-4 calcium, dose response (AID 434937); assay type: functional
T2 sequence (Q9QUQ5 whole entry): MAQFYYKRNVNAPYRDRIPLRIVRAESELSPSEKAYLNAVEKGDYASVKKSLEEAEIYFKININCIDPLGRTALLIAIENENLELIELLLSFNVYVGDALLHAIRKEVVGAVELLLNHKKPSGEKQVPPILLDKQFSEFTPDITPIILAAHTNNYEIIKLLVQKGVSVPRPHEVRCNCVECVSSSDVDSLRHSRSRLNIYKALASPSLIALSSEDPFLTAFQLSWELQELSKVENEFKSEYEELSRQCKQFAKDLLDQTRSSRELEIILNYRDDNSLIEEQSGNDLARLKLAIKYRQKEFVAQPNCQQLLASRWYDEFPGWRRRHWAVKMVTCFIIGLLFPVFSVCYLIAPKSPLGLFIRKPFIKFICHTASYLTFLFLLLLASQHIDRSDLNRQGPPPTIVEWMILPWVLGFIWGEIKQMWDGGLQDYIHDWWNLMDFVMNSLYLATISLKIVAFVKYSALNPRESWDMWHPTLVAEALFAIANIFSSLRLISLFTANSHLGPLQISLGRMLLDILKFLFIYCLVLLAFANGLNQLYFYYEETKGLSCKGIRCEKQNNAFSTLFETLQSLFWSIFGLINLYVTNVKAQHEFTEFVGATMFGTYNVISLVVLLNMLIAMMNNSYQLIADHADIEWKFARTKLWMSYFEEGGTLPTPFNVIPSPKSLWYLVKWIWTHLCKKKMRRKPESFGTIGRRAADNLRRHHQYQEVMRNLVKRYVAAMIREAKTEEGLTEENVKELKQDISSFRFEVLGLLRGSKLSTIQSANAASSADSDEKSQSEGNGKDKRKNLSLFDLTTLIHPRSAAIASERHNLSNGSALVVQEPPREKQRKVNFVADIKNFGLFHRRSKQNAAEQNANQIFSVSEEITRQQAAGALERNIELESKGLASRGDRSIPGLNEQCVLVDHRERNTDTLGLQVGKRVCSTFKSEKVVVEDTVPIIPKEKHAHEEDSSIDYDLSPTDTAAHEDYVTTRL

[6] = biological target: Phospholipase A2 (Homo sapiens, UniProt P04054); assay type: functional;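 further: confirmatory dose-response counterscreen on phospholipase A2, testing hits that came from an ultra-high-throughput screen for ATG4B inhibitors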
Chain of Phospholipase A2 (P04054 whole entry): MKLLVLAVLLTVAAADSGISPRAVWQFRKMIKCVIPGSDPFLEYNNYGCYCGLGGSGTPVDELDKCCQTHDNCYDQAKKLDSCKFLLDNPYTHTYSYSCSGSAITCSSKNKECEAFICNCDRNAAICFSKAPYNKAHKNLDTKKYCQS

[7] = biological target: T3, Cysteine protease ATG4B (Homo sapiens, UniProt Q9Y4P1); assay type: functional;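 further: Fluorescence-based dose-response confirmation assay measuring inhibition of ATG4B activity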
T3 sequence (Q9Y4P1 whole entry): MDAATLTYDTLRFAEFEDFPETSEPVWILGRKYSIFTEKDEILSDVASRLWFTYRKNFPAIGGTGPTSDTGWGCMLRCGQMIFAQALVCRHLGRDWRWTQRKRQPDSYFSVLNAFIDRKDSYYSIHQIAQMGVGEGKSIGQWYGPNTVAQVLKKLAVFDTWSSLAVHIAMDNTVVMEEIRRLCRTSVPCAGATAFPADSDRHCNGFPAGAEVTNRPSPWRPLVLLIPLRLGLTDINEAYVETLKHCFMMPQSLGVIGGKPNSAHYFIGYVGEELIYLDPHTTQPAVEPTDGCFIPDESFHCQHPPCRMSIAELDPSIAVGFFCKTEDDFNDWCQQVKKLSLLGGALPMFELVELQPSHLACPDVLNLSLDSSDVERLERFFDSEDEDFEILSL

[8] = biological target: Heat shock protein HSP 90-alpha (Homo sapiens, UniProt P07900); assay type: functional, organism-based
[9] = biological target: T4, High affinity choline transporter 1 (Homo sapiens, UniProt Q9GZV3); experiment: human choline transporter blockers, potency – cell-based, 5-point CRC, membrane potential dye, dose response (AID 504840); assay type: functional
T4 sequence (Q9GZV3 whole entry): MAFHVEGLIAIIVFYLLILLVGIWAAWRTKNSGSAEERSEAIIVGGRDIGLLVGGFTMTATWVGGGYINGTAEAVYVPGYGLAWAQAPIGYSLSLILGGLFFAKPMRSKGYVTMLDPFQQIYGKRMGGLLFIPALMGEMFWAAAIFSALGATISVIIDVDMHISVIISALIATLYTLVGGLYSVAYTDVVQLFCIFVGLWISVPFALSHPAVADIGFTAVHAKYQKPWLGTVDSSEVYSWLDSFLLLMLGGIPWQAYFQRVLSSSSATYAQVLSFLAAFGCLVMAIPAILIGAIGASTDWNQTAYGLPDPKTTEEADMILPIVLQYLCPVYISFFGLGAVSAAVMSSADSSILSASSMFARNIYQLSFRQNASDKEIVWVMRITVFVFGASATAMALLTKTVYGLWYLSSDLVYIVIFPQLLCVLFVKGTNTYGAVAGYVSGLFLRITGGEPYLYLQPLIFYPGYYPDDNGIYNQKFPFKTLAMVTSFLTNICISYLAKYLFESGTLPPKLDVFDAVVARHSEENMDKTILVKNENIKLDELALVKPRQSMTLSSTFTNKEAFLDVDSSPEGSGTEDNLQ

[10] = biological target: T5, Zinc finger protein mex-5 (Caenorhabditis elegans, UniProt Q9XUB2); experiment: potency of MEX-5 RNA-binding blockers – biochemical, C. elegans, fluorescence polarization, dose response (AID 1960)
T5 sequence (Q9XUB2 whole entry): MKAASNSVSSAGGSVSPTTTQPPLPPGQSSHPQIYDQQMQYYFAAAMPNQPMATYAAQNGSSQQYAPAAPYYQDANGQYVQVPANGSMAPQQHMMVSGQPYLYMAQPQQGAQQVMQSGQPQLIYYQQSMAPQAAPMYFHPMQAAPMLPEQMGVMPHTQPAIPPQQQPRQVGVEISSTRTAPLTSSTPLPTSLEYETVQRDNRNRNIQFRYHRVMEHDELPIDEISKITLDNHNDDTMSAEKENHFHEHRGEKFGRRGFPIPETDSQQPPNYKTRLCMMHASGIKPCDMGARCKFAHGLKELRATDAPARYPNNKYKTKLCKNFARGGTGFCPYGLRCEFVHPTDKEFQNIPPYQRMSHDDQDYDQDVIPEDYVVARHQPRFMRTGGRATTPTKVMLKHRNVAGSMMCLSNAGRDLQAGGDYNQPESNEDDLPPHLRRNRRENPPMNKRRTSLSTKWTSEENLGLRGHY

[11] = biological target: T6, RNA-binding protein pos-1 (Caenorhabditis elegans, UniProt G5EF15); experiment: disruptors of C. elegans POS-1 RNA interaction – biochemical, fluorescence polarization, dose response (AID 1964);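 further: purified POS-1 fused to maltose binding protein made in E. coli; potency of compounds blocking POS-1 binding to fluorescent RNA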
T6 sequence (G5EF15 whole entry): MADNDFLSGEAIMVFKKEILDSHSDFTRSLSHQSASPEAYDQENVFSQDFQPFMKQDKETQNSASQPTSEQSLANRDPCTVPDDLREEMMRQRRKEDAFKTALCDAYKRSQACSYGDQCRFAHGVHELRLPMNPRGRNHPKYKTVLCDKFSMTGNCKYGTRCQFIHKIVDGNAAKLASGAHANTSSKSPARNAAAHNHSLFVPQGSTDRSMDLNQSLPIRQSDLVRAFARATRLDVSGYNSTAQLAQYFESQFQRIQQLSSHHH

[12] = biological target: T7, Cytochrome P450 1A2 (Homo sapiens, UniProt P05177);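 further: PubChem cytochrome P450 panel assay, CYP1A2 panel member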
T7 sequence (P05177 whole entry): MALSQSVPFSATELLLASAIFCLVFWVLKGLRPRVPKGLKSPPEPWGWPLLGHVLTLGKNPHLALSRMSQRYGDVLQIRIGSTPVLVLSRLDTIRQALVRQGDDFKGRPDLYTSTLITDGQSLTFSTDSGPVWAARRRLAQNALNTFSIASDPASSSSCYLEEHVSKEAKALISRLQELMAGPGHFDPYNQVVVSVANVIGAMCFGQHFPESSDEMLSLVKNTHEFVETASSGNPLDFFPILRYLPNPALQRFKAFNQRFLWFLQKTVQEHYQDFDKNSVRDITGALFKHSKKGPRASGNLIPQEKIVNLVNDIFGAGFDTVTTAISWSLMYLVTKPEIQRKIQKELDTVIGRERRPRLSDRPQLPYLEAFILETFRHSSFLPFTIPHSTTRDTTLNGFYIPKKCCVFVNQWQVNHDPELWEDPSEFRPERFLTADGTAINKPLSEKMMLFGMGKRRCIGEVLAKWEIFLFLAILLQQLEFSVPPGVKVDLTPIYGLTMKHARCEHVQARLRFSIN

[13] = biological target: Cytochrome P450 2C19 (Homo sapiens, UniProt P33261); experiment: Cytochrome panel assay with activity outcomes. Panel member name: p450-cyp2c19 Compounds with AC50 equal or less than 10 uM are considered active; assay type: functional; conditions: read-out: AC50
Chain of Cytochrome P450 2C19 (P33261 whole entry): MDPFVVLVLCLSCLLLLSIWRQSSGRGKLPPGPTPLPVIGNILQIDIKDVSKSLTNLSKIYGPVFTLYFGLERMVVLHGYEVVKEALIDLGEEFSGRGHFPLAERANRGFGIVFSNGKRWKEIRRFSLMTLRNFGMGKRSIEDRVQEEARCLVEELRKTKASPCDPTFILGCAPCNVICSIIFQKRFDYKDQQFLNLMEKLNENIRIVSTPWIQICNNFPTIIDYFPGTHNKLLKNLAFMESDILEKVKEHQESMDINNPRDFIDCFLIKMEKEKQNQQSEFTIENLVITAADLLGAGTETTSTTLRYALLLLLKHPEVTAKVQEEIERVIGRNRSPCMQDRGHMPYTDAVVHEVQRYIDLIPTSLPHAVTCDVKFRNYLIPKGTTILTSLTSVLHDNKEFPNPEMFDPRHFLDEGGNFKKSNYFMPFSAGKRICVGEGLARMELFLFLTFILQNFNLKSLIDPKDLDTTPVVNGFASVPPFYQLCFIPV

EC50 [5]: 0.376 µM (active)
Structure (SMILES): COc1ccc(C(CNC(=O)c2cc(C)on2)N(C)C)cc1 (stereo unspecified)

AC50 [8]: 5.2 µM (active)
Structure (SMILES): O=C(c1ccc(Cl)cc1)N1CCN(c2ccc(F)cc2)CC1

IC50 [4]: 11.3 µM (active)
Structure (SMILES): CSc1nc2nccc(-c3ccc(Cl)cc3)n2n1

IC50 [6]: 9.15 µM (active) | IC50 [7]: 17.9 µM (active)
Structure (SMILES): Cc1ccc2nc(N/N=C/c3ccccc3F)nc(-c3ccccc3)c2c1

IC50 [6]: 11.2 µM (active) | IC50 [9]: 10 µM (active) | IC50 [7]: 7.3 µM (active)
Structure (SMILES): Oc1c(Cl)cc(Cl)cc1/C=N/c1ccc2c(c1)OCCO2

AC50 [12]: 1.58 µM (inconclusive) | IC50 [4]: 5.38 µM (active) | AC50 [13]: 1.12 µM (inconclusive)
Structure (SMILES): CCCCCN1CC(=O)C(c2nc(-c3ccc(Cl)cc3)cs2)=C1N

Continued, compound first:

Structure (SMILES): O=C[C@@H](CO)O[C@H](C=O)c1c[nH]c(=O)[nH]c1=O
GI50 [1]: 38.1 µM (inactive) | GI50 [2]: 76.6 µM (inactive) | GI50 [3]: > 80.7 µM (inactive)

Structure (SMILES): CCOC(=O)C1=C(C)N=c2s/c(=C\c3cccc(OCC(=O)O)c3)c(=O)n2C1c1ccccc1OC (stereo unspecified)
IC50 [4]: 4.32 µM (active)

Structure (SMILES): Cc1cccc(N2CCN(C(=O)C3CCN(c4ncnc5c4nc4n5CCCCC4)CC3)CC2C)c1 (stereo unspecified)
IC50 [6]: 11.1 µM (active) | IC50 [7]: 15.3 µM (active)

Structure (SMILES): COC(=O)c1ccc(/N=N/N(C)COc2ccc(Br)cc2)cc1
GI50 [1]: 32.8 µM (inactive) | GI50 [2]: > 66.8 µM (inactive) | GI50 [3]: 27 µM (inactive)

Structure (SMILES): O=c1c(Cc2ccc(F)cc2)c(O)ccn1CCc1c[nH]cn1
EC50 [5]: 5.31 µM (active)

Structure (SMILES): CC(=O)Nc1ccc(CN2CCCC(C(=O)c3ccc(C(F)(F)F)cc3)C2)cc1 (stereo unspecified)
EC50 [5]: 2.66 µM (active)

Structure (SMILES): CC12CCC(C(=O)N3CC=CCC3)(OC1=O)C2(C)C (stereo unspecified)
GI50 [1]: > 100 µM (inactive) | GI50 [2]: > 100 µM (inactive) | GI50 [3]: > 100 µM (inactive)

Structure (SMILES): COc1ccc(C(CNC(=O)C2CCN(S(=O)(=O)c3ccc(F)cc3)CC2)N(C)C)cc1 (stereo unspecified)
EC50 [5]: 2.11 µM (active)

Structure (SMILES): O=C(/C=C/c1ccnc2ccccc12)c1cccs1
AC50 [8]: 5.63 µM (active)

Structure (SMILES): O=C(N/N=C/c1cccn1-c1cccc(C(=O)O)c1)Nc1ccccc1
EC50 [10]: > 300 µM (not active) | IC50 [4]: 8.69 µM (active) | EC50 [11]: > 300 µM (not active)

Structure (SMILES): O/N=N/c1cnccn1
GI50 [1]: 668 µM (inactive) | GI50 [2]: 1070 µM (inactive) | GI50 [3]: > 721 µM (inactive)

Structure (SMILES): C=CCn1c(SCc2nc3scc(-c4ccccc4)c3c(=O)[nH]2)nnc1-c1ccccc1F
IC50 [6]: 12.1 µM (active) | IC50 [7]: 15.9 µM (active)

Structure (SMILES): CCCC(=O)OCC1OC(n2ccc(N)nc2=O)C(OC(=O)CCC)C1OC(=O)CCC (stereo unspecified)
GI50 [1]: 11.1 µM (inactive) | GI50 [2]: 1.86 µM (inactive) | GI50 [3]: 0.2 µM (active)

Structure (SMILES): CC(C)Cc1ccc(C(C)C(=O)N2CCN(/C=C/c3ccccc3)CC2)cc1 (stereo unspecified)
GI50 [1]: 10.9 µM (inactive) | GI50 [2]: 13.7 µM (inactive) | GI50 [3]: 7.35 µM (inactive)
